The record followed here is patent US8586577B2, “Diazepane acetamide derivatives as selective 11B-HSD1 inhibitors” (Merck Patent GmbH, priority 2006, dated 2013).

Structures are written as SMILES.

Holding throughout (format): biochemical
One assay concerns the target T1, human 11-beta HSD-1 (Homo sapiens, UniProt P28845).
T1 construct: made in house; host or cells: E. coli
Put plainly: 11beta-HSD1 enzyme assay, human recombinant enzyme from E. coli, HTRF cortisol detection. As to conditions: cortisone/NADPH 200 nM/200 μM, 150 min at 37° C., read-out: Inhibition of human 11-beta HSD-1 IC50. Here is the method: (§1) Human recombinant 11beta-hydroxysteroid dehydrogenase type 1 (11beta-HSD1) enzyme and type 2 (11beta-HSD2) enzymes were expressed expressed in E. coli. Mice liver microsome fractions were purchased from TEBU.
(§2) The 11beta-HSD1 enzyme assay was carried out in 96 well microliter plates in a total volume of 100 μl containing 30 mM Hepes buffer, pH 7.4 with 1 mM EDTA, substrate mixture cortisone/NADPH (200 nM/200 μM), G-6-P (1 mM) and inhibitors in serial dilutions. Reactions were initiated by addition of 10 μl 11beta-HSD1 (3 μg) from E. coli, or as microsome fractions from mice liver (2.5 μg). Following mixing, the plates were shaken for 150 minutes at 37° C. The reactions were terminated with 10 μl Acid-18beta glycyrrhetinic stop solution. Determinations of cortisol levels in 11 beta-HSD1 preparations were monitored by HTRF (HTRF cortisol assay from C is bio international).
(§3) Activity is expressed in % of control or concentration to inhibit 50% of the enzyme activity (IC50).
On the technique in general: Time-resolved FRET reads energy transfer from a long-lived donor to a nearby acceptor.

The next assay addresses T2, mouse 11-beta HSD-1 (Mus musculus, UniProt P50172).
T2 construct: or as microsome fractions from mice liver (2.5 μg); tissue TEBU; host or cells: mouse liver microsome fractions
Nature of the assay: 11beta-HSD1 enzyme assay, mice liver microsome fractions, HTRF cortisol detection. As to conditions: for IC50: read-out: Inhibition of mouse 11-beta HSD-1 IC50. The protocol:
as §1, §2, §3
On the technique in general: Liver microsomes are vesicles of endoplasmic reticulum, rich in cytochrome P450 enzymes.

The target of a further assay is T3, human 11-beta HSD-2 (Homo sapiens, UniProt P80365).
T3 construct: made in house; host or cells: E. coli
T3 sequence (P80365 1-405): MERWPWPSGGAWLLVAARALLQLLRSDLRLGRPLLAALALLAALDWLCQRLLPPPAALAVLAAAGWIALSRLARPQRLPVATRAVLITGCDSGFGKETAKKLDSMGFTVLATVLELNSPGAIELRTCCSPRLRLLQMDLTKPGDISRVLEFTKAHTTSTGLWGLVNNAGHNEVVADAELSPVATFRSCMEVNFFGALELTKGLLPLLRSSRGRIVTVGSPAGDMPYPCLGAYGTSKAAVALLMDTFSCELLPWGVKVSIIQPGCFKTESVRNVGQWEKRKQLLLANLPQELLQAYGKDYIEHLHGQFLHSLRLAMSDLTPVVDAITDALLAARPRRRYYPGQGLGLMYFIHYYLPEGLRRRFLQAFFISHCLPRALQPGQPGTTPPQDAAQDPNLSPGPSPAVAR
Nature of the assay: 11beta-HSD2 enzyme assay, human recombinant enzyme (cortisol, NAD, carbenoxolone stop). As to conditions: for IC50: read-out: Inhibition of human 11-beta HSD-2 IC50; for Selectivity Ratio human HSD2/HSD1: ratio of IC50 human HSD-2 to human HSD-1. Here is the method: [Worded in the source for another target; used here, by the source, with some conditions changed.] as §1, §2, §3

T1 sequence (P28845 whole entry): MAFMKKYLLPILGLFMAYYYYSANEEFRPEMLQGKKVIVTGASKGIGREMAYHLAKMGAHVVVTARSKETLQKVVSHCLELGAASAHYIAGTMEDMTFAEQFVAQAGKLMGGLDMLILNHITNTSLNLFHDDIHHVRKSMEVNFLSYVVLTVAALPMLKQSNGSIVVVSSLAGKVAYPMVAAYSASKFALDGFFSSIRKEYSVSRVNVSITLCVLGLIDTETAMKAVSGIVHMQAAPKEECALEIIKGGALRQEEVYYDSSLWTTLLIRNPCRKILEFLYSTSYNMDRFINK
T2 sequence (P50172 whole entry): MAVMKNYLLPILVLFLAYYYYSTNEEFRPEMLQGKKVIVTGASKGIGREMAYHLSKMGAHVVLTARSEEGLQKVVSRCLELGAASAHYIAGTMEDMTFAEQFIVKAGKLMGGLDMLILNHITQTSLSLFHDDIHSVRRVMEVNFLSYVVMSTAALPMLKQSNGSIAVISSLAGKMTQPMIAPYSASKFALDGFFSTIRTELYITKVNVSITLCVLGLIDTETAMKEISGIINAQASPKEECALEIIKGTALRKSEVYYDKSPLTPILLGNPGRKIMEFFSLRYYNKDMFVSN

As to `CN(C(=O)CN1CCCN(S(=O)(=O)c2ccccc2F)CC1)C1CCCCC1` [Ex 3-3, N-Cyclohexyl-2-[4-(2-fluoro-benzenesulfonyl)-[1,4]diazepan-1-yl]-N-methyl-acetamide], the IC50 (commonly the concentration needed to halve the response being measured) at human 11-beta HSD-1 came to 430 nM.

As for `O=C(CN1CCCN(S(=O)(=O)c2ccccc2F)CC1)N1CCCC2CCCCC21` (centres unmarked) [Ex 2-1, 2-[4-(2-Fluoro-benzenesulfonyl)-[1,4]diazepan-1-yl]-1-(octahydro-quinolin-1-yl)-ethanone], the “Inhibition of mouse 11-beta HSD-1, activity in % of control” value at mouse 11-beta HSD-1 (at 1 μM) is 53% of Ctrl. In addition, the values for the half-maximal inhibitory concentration (IC50) on human 11-beta HSD-1 and at human 11-beta HSD-2 (human recombinant enzyme) were 27 nM and 3000 nM, respectively. Also, the “Selectivity Ratio human HSD2/HSD1” value at human 11-beta HSD-2 turned out to be 111.

In the case of `O=C(CN1CCCN(S(=O)(=O)c2ccccc2Cl)CC1)N1CCCC2CCCCC21` (centres unmarked) [Ex 2, 2-[4-(2-Chloro-benzenesulfonyl)-[1,4]diazepan-1-yl]-1-(octahydro-quinolin-1-yl)-ethanone], the IC50 on mouse 11-beta HSD-1 was determined as 250 nM. In addition, the “Inhibition of human 11-beta HSD-2, activity in % of control” value on human 11-beta HSD-2 (at 10 μM, human recombinant enzyme) is 81% of Ctrl.

For `O=C(CN1CCCN(S(=O)(=O)c2ccccc2Cl)CC1)N1CCCCC1` [Ex 3-6, 2-[4-(2-Chloro-benzenesulfonyl)-[1,4]diazepan-1-yl]-1-piperidin-1-yl-ethanone], the IC50 on human 11-beta HSD-1 is 420 nM.

As for `O=C(CN1CCCN(S(=O)(=O)c2ccccc2F)CC1)N1CCC2(C=Cc3ccccc32)CC1` [Ex 3-10, 2-[4-(2-fluoro-benzenesulfonyl)-[1,4]diazepan-1-yl]-1-spiro[1H-inden-1,4′piperidin-1-yl)-ethanone], the IC50 at human 11-beta HSD-1 was determined as 122 nM.

For `O=C(CN1CCCN(S(=O)(=O)c2ccccc2F)CC1)N(C1CCCCC1)C1CC1` [Ex 3, N-Cyclohexyl-N-cyclopropyl-2-[4-(2-fluoro-benzenesulfonyl)-[1,4]diazepan-1-yl]-acetamide], the IC50 on mouse 11-beta HSD-1 came to 230 nM; on human 11-beta HSD-1, 76 nM; on human 11-beta HSD-2 (human recombinant enzyme), 7000 nM. The “Selectivity Ratio human HSD2/HSD1” value at human 11-beta HSD-2 turned out to be 92.

Consider `O=C(CN1CCCN(S(=O)(=O)c2c(F)cccc2F)CC1)N1CCCC2CCCCC21` (centres unmarked) [Ex 2-2, 2-[4-(2,6-Difluoro-benzenesulfonyl)-[1,4]diazepan-1-yl]-1-(octahydro-quinolin-1-yl)-ethanone], for which, on human 11-beta HSD-1, the IC50 was 17 nM.
